Measurements published in patent publication US6737383B1, “Herbicidal oxadiazolidines” (priority 1999, dated 2004).

Experiments:
pigweed = experiment: Test B pre/postemergence pigweed; type: in vivo, Amaranthus retroflexus
Outline: (§1)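 Test chemicals in a non-phytotoxic solvent mixture with surfactant were sprayed preemergence onto planted seeds and postemergence onto plants 2 to 18 cm tall (1- to 4-leaf stage). After twelve to sixteen days in a greenhouse, injury was visually rated against untreated controls from 0 (no effect) to 10 (complete control).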

cocklebur = experiment: Test B pre/postemergence cocklebur; type: in vivo, Xanthium strumarium
Outline: as §1

wild oat = experiment: Test B pre/postemergence wild oat; type: in vivo, Avena fatua
Outline: as §1

bedstraw = experiment: Test B pre/postemergence bedstraw; type: in vivo, Galium aparine
Outline: as §1

morningglory = experiment: Test B pre/postemergence morningglory; type: in vivo, Ipomoea hederacea
Outline: as §1

corn = experiment: Test B pre/postemergence corn; type: in vivo, Zea mays
Outline: as §1

giant foxtail = experiment: Test B pre/postemergence giant foxtail; type: in vivo, Setaria faberii
Outline: as §1

smallflower flatsedge = experiment: Test B flood test smallflower flatsedge; type: in vivo, Cyperus difformis
Outline: (§2)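 Flood test on plants grown to the 2-leaf stage; treated plants kept in greenhouse twelve to sixteen days, then visually rated against controls on a 0 (no effect) to 10 (complete control) scale.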

sugar beet = experiment: Test B pre/postemergence sugar beet; type: in vivo, Beta vulgaris
Outline: as §1

blackgrass = experiment: Test B pre/postemergence blackgrass; type: in vivo, Alopecurus myosuroides
Outline: as §1

rape = experiment: Test B pre/postemergence rape; type: in vivo, Brassica napus
Outline: as §1

wheat = experiment: Test B pre/postemergence wheat; type: in vivo, Triticum aestivum
Outline: as §1

surinam grass = experiment: Test B pre/postemergence surinam grass; type: in vivo, Brachiaria decumbens
Outline: as §1

velvetleaf = experiment: Test B pre/postemergence velvetleaf; type: in vivo, Abutilon theophrasti
Outline: as §1

soybean = experiment: Test B pre/postemergence soybean; type: in vivo, Glycine max
Outline: as §1

rice = experiment: Test B flood test rice; type: in vivo, Oryza sativa
Outline: as §2

[1] = Postemergence, Rate 62 g/ha, scale 0 to 10, 0 is no effect, 10 is complete control
[2] = Postemergence, Rate 125 g/ha, scale of 0 to 10 where 0 is no effect and 10 is complete control
[3] = Preemergence, Rate 62 g/ha, scale 0 to 10 (0 no effect, 10 complete control)
[4] = Preemergence, Rate 125 g/ha, scale 0 to 10 (0 no effect, 10 complete control)
[5] = Preemergence, Rate 250 g/ha, scale of 0 to 10 where 0 is no effect and 10 is complete control
[6] = Preemergence, Rate 500 g/ha, scale 0 (no effect) to 10 (complete control)
[7] = Rate 250 g/ha, Postemergence, scale 0 to 10, 0 is no effect, 10 is complete control
[8] = Rate 500 g/ha, Postemergence, scale 0 to 10, 0 no effect, 10 complete control
[9] = Postemergence, Rate 250 g/ha, scale 0 to 10, 0 no effect, 10 complete control
[10] = Rate 125 g/ha, Postemergence, scale 0 to 10, 0 no effect, 10 complete control
[11] = Postemergence (flood test species), Rate 125 g/ha, scale of 0 to 10 where 0 is no effect and 10 is complete control
[12] = Rate 250 g/ha, Postemergence (flood test), scale 0 to 10, 0 is no effect, 10 is complete control
[13] = Rate 500 g/ha, listed under Postemergence (flood test species), scale 0 to 10, 0 no effect, 10 complete control

CCN(CC)C(=O)n1oc(=O)n(-c2cccc3c2CCCC3)c1=O [Compound 89]
Redroot pigweed plant response rating (pigweed; [1]): 0 | Redroot pigweed plant response rating (pigweed; [2]): 0 | Redroot pigweed plant response rating (pigweed; [3]): 0 | Plant response rating, Redroot pigweed (pigweed; [4]): 0 | Plant response rating, Redroot pigweed (pigweed; [5]): 0 | Redroot pigweed plant response rating (pigweed; [6]): 0 | Plant response rating, Redroot pigweed (pigweed; [7]): 0 | Redroot pigweed plant response rating (pigweed; [8]): 5 | Cocklebur plant response rating (cocklebur; [1]): 1 | Cocklebur plant response rating (cocklebur; [2]): 1 | Cocklebur plant response rating (cocklebur; [9]): 2 | Cocklebur plant response rating (cocklebur; [3]): 0 | Plant response rating, Cocklebur (cocklebur; [4]): 0 | Plant response rating, Cocklebur (cocklebur; [5]): 0 | Cocklebur plant response rating (cocklebur; [6]): 0 | Cocklebur plant response rating (cocklebur; [8]): 2 | Wild oats plant response rating (wild oat; [1]): 0 | Wild oats plant response rating (wild oat; [2]): 0 | Wild oats plant response rating (wild oat; [3]): 0 | Plant response rating, Wild oats (wild oat; [4]): 0 | Plant response rating, Wild oats (wild oat; [5]): 0 | Wild oats plant response rating (wild oat; [6]): 0 | Plant response rating, Wild oats (wild oat; [7]): 0 | Wild oats plant response rating (wild oat; [8]): 0 | Bedstraw plant response rating (bedstraw; [1]): 0 | Bedstraw plant response rating (bedstraw; [9]): 0 | Bedstraw plant response rating (bedstraw; [3]): 0 | Plant response rating, Bedstraw (bedstraw; [4]): 0 | Plant response rating, Bedstraw (bedstraw; [5]): 0 | Bedstraw plant response rating (bedstraw; [6]): 0 | Bedstraw plant response rating (bedstraw; [10]): 0 | Bedstraw plant response rating (bedstraw; [8]): 3 | Morningglory plant response rating (morningglory; [1]): 0 | Morningglory plant response rating (morningglory; [2]): 0 | Morningglory plant response rating (morningglory; [9]): 0 | Morningglory plant response rating (morningglory; [3]): 0 | Plant response rating, Morningglory (morningglory; [4]): 0 | Plant response rating, Morningglory (morningglory; [5]): 0 | Morningglory plant response rating (morningglory; [6]): 0 | Morningglory plant response rating (morningglory; [8]): 2 | Corn plant response rating (corn; [1]): 0 | Corn plant response rating (corn; [2]): 0 | Corn plant response rating (corn; [9]): 0 | Corn plant response rating (corn; [3]): 0 | Plant response rating, Corn (corn; [4]): 0 | Plant response rating, Corn (corn; [5]): 0 | Corn plant response rating (corn; [6]): 0 | Corn plant response rating (corn; [8]): 1 | Giant foxtail plant response rating (giant foxtail; [1]): 0 | Giant foxtail plant response rating (giant foxtail; [2]): 0 | Giant foxtail plant response rating (giant foxtail; [9]): 0 | Giant foxtail plant response rating (giant foxtail; [3]): 0 | Plant response rating, Giant foxtail (giant foxtail; [4]): 0 | Plant response rating, Giant foxtail (giant foxtail; [5]): 0 | Giant foxtail plant response rating (giant foxtail; [6]): 2 | Giant foxtail plant response rating (giant foxtail; [8]): 2 | S. Flatsedge plant response rating (smallflower flatsedge; [11]): 0 | S. Flatsedge plant response rating (smallflower flatsedge; [1]): 0 | Plant response rating, S. Flatsedge (smallflower flatsedge; [12]): 0 | S. Flatsedge plant response rating (smallflower flatsedge; [13]): 0 | Sugarbeets plant response rating (sugar beet; [1]): 0 | Sugarbeets plant response rating (sugar beet; [2]): 0 | Sugarbeets plant response rating (sugar beet; [3]): 0 | Plant response rating, Sugarbeets (sugar beet; [4]): 0 | Plant response rating, Sugarbeets (sugar beet; [5]): 0 | Sugarbeets plant response rating (sugar beet; [6]): 0 | Plant response rating, Sugarbeets (sugar beet; [7]): 0 | Sugarbeets plant response rating (sugar beet; [8]): 6 | Blackgrass plant response rating (blackgrass; [1]): 0 | Blackgrass plant response rating (blackgrass; [2]): 0 | Blackgrass plant response rating (blackgrass; [9]): 0 | Blackgrass plant response rating (blackgrass; [3]): 0 | Plant response rating, Blackgrass (blackgrass; [4]): 0 | Plant response rating, Blackgrass (blackgrass; [5]): 0 | Blackgrass plant response rating (blackgrass; [6]): 0 | Blackgrass plant response rating (blackgrass; [8]): 0 | Rape plant response rating (rape; [1]): 0 | Rape plant response rating (rape; [2]): 0 | Rape plant response rating (rape; [9]): 0 | Rape plant response rating (rape; [3]): 0 | Plant response rating, Rape (rape; [4]): 0 | Plant response rating, Rape (rape; [5]): 0 | Rape plant response rating (rape; [6]): 0 | Rape plant response rating (rape; [8]): 0 | Wheat plant response rating (wheat; [1]): 0 | Wheat plant response rating (wheat; [2]): 0 | Wheat plant response rating (wheat; [3]): 0 | Plant response rating, Wheat (wheat; [4]): 0 | Plant response rating, Wheat (wheat; [5]): 0 | Wheat plant response rating (wheat; [6]): 0 | Plant response rating, Wheat (wheat; [7]): 0 | Wheat plant response rating (wheat; [8]): 0 | B. signalgrass plant response rating (surinam grass; [1]): 0 | B. signalgrass plant response rating (surinam grass; [9]): 0 | B. signalgrass plant response rating (surinam grass; [3]): 0 | Plant response rating, B. signalgrass (surinam grass; [4]): 0 | Plant response rating, B. signalgrass (surinam grass; [5]): 0 | B. signalgrass plant response rating (surinam grass; [6]): 0 | B. signalgrass plant response rating (surinam grass; [10]): 0 | B. signalgrass plant response rating (surinam grass; Rate 500 g/ha, Postemergence, scale of 0 to 10 where 0 is no effect and 10 is complete control): 0 | Velvetleaf plant response rating (velvetleaf; [1]): 0 | Velvetleaf plant response rating (velvetleaf; [2]): 0 | Velvetleaf plant response rating (velvetleaf; [3]): 0 | Plant response rating, Velvetleaf (velvetleaf; [4]): 0 | Plant response rating, Velvetleaf (velvetleaf; [5]): 0 | Velvetleaf plant response rating (velvetleaf; [6]): 0 | Plant response rating, Velvetleaf (velvetleaf; [7]): 0 | Velvetleaf plant response rating (velvetleaf; [8]): 3 | Soybean plant response rating (soybean; [1]): 0 | Soybean plant response rating (soybean; [2]): 0 | Soybean plant response rating (soybean; [3]): 0 | Plant response rating, Soybean (soybean; [4]): 0 | Plant response rating, Soybean (soybean; [5]): 0 | Soybean plant response rating (soybean; [6]): 0 | Plant response rating, Soybean (soybean; [7]): 0 | Soybean plant response rating (soybean; [8]): 1 | Rice plant response rating (rice; [11]): 0 | Rice plant response rating (rice; [1]): 0 | Plant response rating, Rice (rice; [12]): 0 | Rice plant response rating (rice; [13]): 0
